Reference: patent publication US4002752A, “Piperazinylimino rifamycins” (Gruppo Lepetit S.p.A., priority 1975, dated 1977)
Converted amounts (≈) assume the structure as drawn.

How the values were obtained:
[1] = tested on: Staphylococcus aureus; assay: experimental Staphylococcus aureus infections in mice; type: in vivo; conditions: po; Staphylococcus aureus infection in mice
[2] = in vivo; conditions: mouse
[3] = tested on: Mycobacterium tuberculosis H37 Rv; assay: minimal inhibitory concentration in vitro against Mycobacterium tuberculosis H37 Rv; type: cell-based; conditions: H37RV
Experimental: For instance, the value of the minimal inhibitory concentration in vitro of the "cyclopentyl derivative" against Mycobacterium tuberculosis H37 Rv is 0.05 μg/ml, while that of rifampicin is 0.5 μg/ml.

[4] = tested on: Mycobacterium tuberculosis H37 Rv; assay: survival time of mice infected with Mycobacterium tuberculosis H37 Rv; type: in vivo; conditions: once a week administration per os versus daily administration of rifampicin at the same dose level
Text: The unexpected biological characteristics of the novel rifamycins have been evidenced by considering the survival time after a daily administration of rifampicin in comparison with a once a week administration of the same dose level per os of 3-(4-cyclopentyl-1-piperazinyl)iminomethylrifamycin SV (hereinafter referred to as "cyclopentyl derivative") to mice infected with Mycobacterium tuberculosis H37 Rv.

[5] = toxicity in mice (LD50); conditions: mouse, in vivo

Structure (SMILES) | ED50 [1] [mg/kg] | LD50 ([2]; ip) [mg/kg] | LD50 ([2]; po) [mg/kg] | MIC [3] [µg/mL] | survival time [4] | LD50 ([5]; ip) [mg/kg] | LD50 ([5]; po) [mg/kg]
COC1C=COC2(C)Oc3c(C)c(O)c4c(O)c(c(C=NN5CCN(C6CCC6)CC5)c(O)c4c3C2=O)NC(=O)C(C)=CC=CC(C)C(O)C(C)C(O)C(C)C(OC(C)=O)C1C (stereo not drawn) [cyclobutyl derivative, 3-(4-cyclobutyl-1-piperazinyl)iminomethylrifamycin SV] | 0.16 | > 650 | > 2000 |  |  |  | 
COC1C=COC2(C)Oc3c(C)c(O)c4c(O)c(c(C=NN5CCN(C6CCCC6)CC5)c(O)c4c3C2=O)NC(=O)C(C)=CC=CC(C)C(O)C(C)C(O)C(C)C(OC(C)=O)C1C (stereo not drawn) [cyclopentyl derivative, 3-(4-cyclopentyl-1-piperazinyl)iminomethylrifamycin SV] |  | > 750 | > 2000 | 0.05 (≈ 0.057 µM) | about the same survival time |  | 
CO[C@H]1/C=C/O[C@@]2(C)Oc3c(C)c(O)c4c(O)c(c(/C=N/N5CCN(C)CC5)c(O)c4c3C2=O)NC(=O)/C(C)=C\C=C\[C@H](C)[C@H](O)[C@@H](C)[C@@H](O)[C@@H](C)[C@H](OC(C)=O)[C@@H]1C [rifampicin] |  |  |  |  |  | 416 | 907
